# Assay results: US8637558B2 (Industry-Academic Cooperation Foundation, Chosun University, priority 2008, dated 2014)
# Target: 15-PGDH (Homo sapiens (Human), UniProt P15428)
# Test: Assay for the activities of 15-PGDH inhibitors (formation of NADH at 340 nm)
# Type: biochemical
# Details: purified 15-PGDH enzyme, 21 μM PGE2, 0.25 mM NAD+, pH 7.5; concentration inhibiting 50% of 15-PGDH activity
# Experimental: <1-1> Expression and Purification of 15-PGDH
# A 15-PGDH cDNA plasmid containing BamHI and EcoRI sites of the pGES-2T expression vector was used to transform Escherichia coli BL-21 lysS in accordance with the ordinarily used in the art. The transformed cells were grown in 500 mL LB medium containing 50 μg/mL ampicillin at 37° C. while being stirred at 220 rpm until the OD600 reached 0.6. Isopropyl β-D-thiogalactoside (1 mM) was added and the cells were allowed to grow for 12 hours at 25° C. Then, the pellets were harvested by centrifugation at 4000×g for 30 minutes at 4° C. The cell pallets were resuspended in 20 mL cell lysis buffer (1×PBS buffer (pH 7.4) containing 1 mM EDTA and 0.1 mM DTT) and sonicated (14×10 s at 4° C.). The disrupted cells were centrifuged at 4000×g for 20 minutes at 4° C. The supernatant was loaded slowly on a glutathione-sepharose 4B column, which was equilibrated at 4° C. with a cell lysis buffer (1×PBS buffer (pH 7.4) containing 1 mM EDTA and 0.1 mM DTT). The column was washed with the lysis buffer until OD280 reached below 0.005. Then, 15-PGDH was eluted from the glutathione-sepharose 4B column at room temperature for 5 minutes by using the elution buffer (50 mM Tris-HCl (pH 8.0) containing 10 mM reduced glutathione, 1 mM EDTA and 0.1 mM DTT). The concentration and the purity of the purified enzyme were determined by SDS-PAGE.
# <1-2> Assay for the Activities of 15-PGDH Inhibitors
# The absorbance of the reaction mixture was recorded at 340 nm so that the activities of the derivatives according to the present invention as 15-PGDH inhibitors were determined from a standard curve prepared from the absorbance of various concentrations of NADH at 340 nm.
# 15-PGDH, sequence (P15428 whole entry): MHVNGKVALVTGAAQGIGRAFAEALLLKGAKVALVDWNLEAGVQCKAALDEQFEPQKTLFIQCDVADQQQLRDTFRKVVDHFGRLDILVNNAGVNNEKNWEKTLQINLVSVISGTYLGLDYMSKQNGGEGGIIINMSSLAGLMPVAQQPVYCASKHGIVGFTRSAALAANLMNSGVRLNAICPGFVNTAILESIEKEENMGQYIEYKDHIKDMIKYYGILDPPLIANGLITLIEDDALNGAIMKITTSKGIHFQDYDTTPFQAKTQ
row,IC50 [nM],Structure (SMILES)
1,7.2,"O=C1NC(=O)/C(=C/c2ccc(OCCC3CCCCC3)c(Cl)c2)S1 [Derivative 11, 5-(3-chloro-4-(2-cyclohexylethoxy)benzylidene)thiazolidine-2,4-dione]"
2,3560,"COc1cc(OCCC2CCCCC2)ccc1/C=C1\SC(=O)NC1=O [Derivative 60, 5-(4-(2-cyclohexylethoxy)-2-methoxybenzylidene)thiazolidine-2,4-dione]"
3,178,"O=C1NC(=O)/C(=C/c2ccc(OCCc3ccccc3)cc2Cl)S1 [Derivative 86, 5-(2-chloro-4-phenylethoxybenzylidene)thiazolidine-2,4-dione]"
4,31.4,"CC1CCC(COc2ccc(/C=C3\SC(=O)NC3=O)cc2C(F)(F)F)CC1 (stereo not drawn) [Derivative 65, 5-[4-((4-methylcyclohexyl)methoxy)-3-(trifluoromethyl)benzylidene]thiazolidine-2,4-dione]"
5,122,"O=C1NC(=O)/C(=C/c2cccc(OCCc3ccccc3)c2Cl)S1 [Derivative 73, 5-(2-chloro-3-phenylethoxybenzylidene)thiazolidine-2,4-dione]"
6,49.8,"Cc1cc(/C=C2\SC(=O)NC2=O)ccc1OCC1CCCCC1 [Derivative 51, 5-(4-(2-cyclohexylmethoxy)-3-methylbenzylidene)thiazolidine-2,4-dione]"
7,777,"O=C1NC(=O)C(Cc2ccc(OCCC3CCCC3)cc2)S1 (stereo not drawn) [Derivative 130, 5-(4-(2-cyclopentylethoxy)benzyl)thiazolidine-2,4-dione]"
8,1040,"O=C1NC(=O)/C(=C/c2ccc(OCc3ccccc3)cc2)S1 [Derivative 44, 5-(4-(benzyloxy)benzylidene)thiazolidine-2,4-dione]"
9,1670,"COc1ccc(/C=C2\SC(=O)NC2=O)cc1OCCc1cccs1 [Derivative 103, 5-(4-methoxy-3-(2-(thiophen-2-yl)ethoxy)benzylidene)thiazolidine-2,4-dione]"
10,5670,"COc1ccc(/C=C2\SC(=O)NC2=O)cc1 [Derivative 40, 5-(4-methoxybenzylidene)thiazolidine-2,4-dione]"
11,5250,"O=C1NC(=O)C(Cc2ccc(OCc3ccccc3)cc2)S1 (stereo not drawn) [Derivative 116, 5-(4-(benzyloxy)benzyl)thiazolidine-2,4-dione]"
12,217,"O=C1NC(=O)/C(=C/c2ccc(OCC3CCCCC3)cc2)S1 [Derivative 42, 5-(4-(cyclohexylmethoxy)benzylidene)thiazolidine-2,4-dione]"
13,259,"CCOc1cc(/C=C2\SC(=O)NC2=O)ccc1OCCC1CCCCC1 [Derivative 59, 5-(4-(2-cyclohexylethoxy)-3-ethoxybenzylidene)thiazolidine-2,4-dione]"
14,42.5,"O=C1NC(=O)/C(=C/c2ccc(OCC3CCCC3)cc2)S1 [Derivative 35, 5-(4-(cyclopentylmethoxy)benzylidene)thiazolidine-2,4-dione]"
15,4060,"O=C1NC(=O)C(Cc2ccc(OCC3CCCCC3)cc2)S1 (stereo not drawn) [Derivative 114, 5-(4-(cyclohexylmethoxy)benzyl)thiazolidine-2,4-dione]"
16,286,"Nc1cc(/C=C2\SC(=O)NC2=O)ccc1OCCC1CCCCC1 [Derivative 50, 5-(3-amino-4-(2-cyclohexylethoxy)benzylidene)thiazolidine-2,4-dione]"
17,814,"O=C1NC(=O)/C(=C/c2ccc(OCc3ccc(-c4ccccc4)cc3)cc2)S1 [Derivative 76, 5-(4-(biphenyl-4-ylmethoxy)benzylidene)thiazolidine-2,4-dione]"
18,1880,"O=C1NC(=O)/C(=C/c2ccc(OCc3ccco3)cc2)S1 [Derivative 25, 5-(4-(furan-2-ylmethoxy)benzylidene)thiazolidine-2,4-dione]"
19,84.1,"O=C1NC(=O)/C(=C/c2ccc(OCCc3cccs3)c(Cl)c2)S1 [Derivative 101, 5-(3-chloro-4-(2-(thiophen-2-yl)ethoxy)benzylidene)thiazolidine-2,4-dione]"
20,11700,"O=C1NC(=O)/C(=C/c2cccc(OCc3ccc([N+](=O)[O-])cc3)c2Cl)S1 [Derivative 109, 5-(2-chloro-3-(4-nitrobenzyloxy)benzylidene)thiazolidine-2,4-dione]"

row,IC50 [nM],Structure (SMILES)
1,50.9,"O=C1NC(=O)/C(=C/c2ccc(OCCC3CCCCC3)cc2)S1 [Derivative 46, 5-(4-(2-cyclohexylethoxy)benzylidene)thiazolidine-2,4-dione]"
2,854,"O=C1NC(=O)C(Cc2ccc(OCC3CCCC3)cc2)S1 (stereo not drawn) [Derivative 115, 5-(4-(cyclopentylmethoxy)benzyl)thiazolidine-2,4-dione]"
3,57.6,"O=C1NC(=O)/C(=C/c2cccc(OCC3CCCCC3)c2Cl)S1 [Derivative 63, 5-(2-chloro-3-(cyclohexylmethoxy)benzylidene)thiazolidine-2,4-dione]"
4,2820,"O=C1NC(=O)/C(=C/c2ccc([N+](=O)[O-])c(OCCC3CCCCC3)c2)S1 [Derivative 79, 5-(3-(2-cyclohexylethoxy)-4-nitrobenzylidene)thiazolidine-2,4-dione]"
5,10.3,"O=C1NC(=O)/C(=C/c2ccc(OCCCC3CCCCC3)c(Cl)c2)S1 [Derivative 32, 5-(3-chloro-4-(3-cyclohexylpropoxy)benzylidene)thiazolidine-2,4-dione]"
6,52,"O=C1NC(=O)/C(=C/c2ccc(OCCCc3ccccc3)cc2Cl)S1 [Derivative 87, 5-(2-chloro-4-phenylpropoxybenzylidene)thiazolidine-2,4-dione]"
7,8910,O=C1NC(=O)/C(=C/c2ccc(OCCc3ccccn3)cc2Cl)S1 [Derivative 104]
8,6280,"O=C1NC(=O)/C(=C/c2cc(OCCC3CCCCC3)ccc2[N+](=O)[O-])S1 [Derivative 83, 5-(5-(2-cyclohexylethoxy)-2-nitrobenzylidene)thiazolidine-2,4-dione]"
9,172,"O=C1NC(=O)/C(=C/c2ccc(OCC3COc4ccccc4O3)cc2)S1 (stereo not drawn) [Derivative 62, 5-(4-((2,3-Dihydrobenzo[b][1,4]dioxin-2-yl)methoxy)benzylidene) thiazolidine-2,4-dione]"
10,2610,"O=C1NC(=O)/C(=C/c2ccc(OCCNC3CCCCC3)cc2)S1 [Derivative 7, 5-(4-(2-(cyclohexylamino)ethoxy)benzylidene)thiazolidine-2,4-dione]"
11,173,"O=C1NC(=O)C(Cc2ccc(OCCC3CCCCC3)c(Cl)c2)S1 (stereo not drawn) [Derivative 120, 5-(3-chloro-4-(2-cyclohexylethoxy)benzyl)thiazolidine-2,4-dione]"
12,1390,"O=C1NC(=O)C(Cc2ccc(OCCN3CCS(=O)(=O)CC3)cc2)S1 (stereo not drawn) [Derivative 126, 5-(4-(2-thiomorpholine-1,1-Dioxideethoxy)benzyl)-2,4-thiazolidinedione]"
13,117,"O=C1NC(=O)/C(=C/c2ccc(OCCc3ccccc3)cc2)S1 [Derivative 55, 5-[4-(2-phenylethoxy)benzylidene]-1,3-thiazolidine-2,4-dione]"
14,5820,"CCOc1ccc(/C=C2\SC(=O)NC2=O)cc1 [Derivative 41, 5-(4-ethoxybenzylidene)thiazolidine-2,4-dione]"
15,9330,"O=C1NC(=O)/C(=C/c2ccc(OCC3CCC(C(=O)O)CC3)cc2)S1 (stereo not drawn) [Derivative 111, 4-({4-[(Z)-(2,4-dioxo-1,3-thiazolidin-5-ylidene)methyl]phenoxy}methyl)cyclohexane carboxylic acid]"
16,2450,"O=C1NC(=O)/C(=C/c2ccc(OCCN3CCS(=O)(=O)CC3)c([N+](=O)[O-])c2)S1 [Derivative 90, 5-[3-nitro-4-(2-thiomorpholine1,1-Dioxideethoxy)benzylidene]-2,4-thiazolidinedione]"
17,> 20000,"O=C1NC(=O)/C(=C/c2ccc(Oc3ccccc3)cc2)S1 [Derivative 54, 5-(4-phenoxybenzylidene)-1,3-thiazolidine-2,4-dione]"
18,689,"O=C1NC(=S)/C(=C/c2ccc(OCCC3CCCCC3)cc2)S1 [Derivative 13, 5-(4-(2-cyclohexylethoxy)benzylidene)-4-thioxothiazolidin-2-one]"
19,143,"O=C1NC(=O)C(Cc2ccc(OCCCC3CCCCC3)c(Cl)c2)S1 (stereo not drawn) [Derivative 122, 5-(3-chloro-4-(cyclohexylpropoxy)benzyl)thiazolidine-2,4-dione]"
20,327,"O=C1NC(=O)/C(=C/c2ccc(OCCCC3CCCCC3)c([N+](=O)[O-])c2)S1 [Derivative 12, 5-(4-(3-cyclohexylpropoxy)-3-nitrobenzylidene)thiazolidine-2,4-dione]"

row,Structure (SMILES),IC50 [nM]
1,"O=C1NC(=O)/C(=C/c2cccc(OCCCCC3CCCCC3)c2Cl)S1 [Derivative 100, 5-(2-chloro-3-(cyclohexylbutoxy)benzylidene)thiazolidine-2,4-dione]",94.5
2,"O=C1NC(=O)/C(=C/c2ccc(OCCCCC3CCCCC3)c(Cl)c2)S1 [Derivative 33, 5-(3-chloro-4-(4-cyclohexylbutoxy)benzylidene)thiazolidine-2,4-dione]",26.3
